Data from US7410975B2, “Small molecule toll-like receptor (TLR) antagonists” (Coley Pharmaceutical Group, Inc., priority 2003, dated 2008).
Where a name gives a salt, the structure may show the parent alone.

These molecules were tested against T1, human TLR9 (hTLR9) (Homo sapiens, UniProt Q9NR96) (assay: Antagonist screen, hTLR9-NFκB-293 cells, 6× NF-κB-luciferase reporter, with EC50 of CpG ODN 2006). Conditions: compound at 0.5, 5, 50 μg/ml; EC50 concentration of CpG ODN 2006; 16 h; NF-κB-luciferase.
T1 construct: expressed in transfected cells
T1 sequence (Q9NR96 26-1032): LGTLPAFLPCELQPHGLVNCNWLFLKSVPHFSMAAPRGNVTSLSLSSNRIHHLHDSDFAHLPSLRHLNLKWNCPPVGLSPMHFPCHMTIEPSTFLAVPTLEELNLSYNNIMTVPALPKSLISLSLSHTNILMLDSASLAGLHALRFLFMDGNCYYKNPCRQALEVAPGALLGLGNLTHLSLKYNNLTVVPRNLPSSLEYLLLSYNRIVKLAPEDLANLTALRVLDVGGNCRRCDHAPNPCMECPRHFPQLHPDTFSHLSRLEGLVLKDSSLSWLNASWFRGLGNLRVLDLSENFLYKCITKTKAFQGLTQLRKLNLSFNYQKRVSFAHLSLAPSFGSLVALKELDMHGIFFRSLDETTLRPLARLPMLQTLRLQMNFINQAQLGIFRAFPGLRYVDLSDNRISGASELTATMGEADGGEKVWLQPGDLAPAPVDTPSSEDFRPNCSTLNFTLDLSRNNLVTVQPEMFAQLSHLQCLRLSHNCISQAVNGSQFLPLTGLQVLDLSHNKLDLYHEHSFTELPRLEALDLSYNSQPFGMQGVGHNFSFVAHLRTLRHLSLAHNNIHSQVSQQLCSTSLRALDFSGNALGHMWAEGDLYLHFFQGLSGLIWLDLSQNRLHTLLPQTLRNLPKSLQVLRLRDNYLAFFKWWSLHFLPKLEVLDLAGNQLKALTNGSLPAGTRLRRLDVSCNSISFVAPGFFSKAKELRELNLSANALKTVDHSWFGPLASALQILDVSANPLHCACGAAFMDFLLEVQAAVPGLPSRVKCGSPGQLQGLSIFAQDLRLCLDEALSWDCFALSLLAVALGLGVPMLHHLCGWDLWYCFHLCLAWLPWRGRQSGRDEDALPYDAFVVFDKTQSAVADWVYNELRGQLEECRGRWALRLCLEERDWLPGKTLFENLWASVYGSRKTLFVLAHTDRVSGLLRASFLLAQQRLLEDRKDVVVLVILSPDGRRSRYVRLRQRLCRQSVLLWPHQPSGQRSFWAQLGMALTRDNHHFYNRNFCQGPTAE
Format: cell-based
Summary of the method: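 Luciferase fold induction was compared with the ligand-alone baseline, and antagonism was scored by the lowest concentration giving clear down-regulation.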

**Q.** Which “hTLR9 (inhibitory effect, antagonist score)” value does the source give for CN1CCc2cccc3c2[C@H]1Cc1ccc(O)c(O)c1-3.Cl [compound 101, Apomorphinehydrochloride (R, —)] here?
**A.** 12 (compounds for which there was clear down regulation at 5 μg/ml and 50 μg/ml)

**Q.** Which “hTLR9 (inhibitory effect, antagonist score)” value does the source give for CN1CCc2cc3c(c4c2C1Cc1ccccc1-4)OCO3.Cl (stereo not shown) [compound 669, Remerine hydrochloride] here?
**A.** — (compounds for which there was no clear down regulation even at 50 μg/ml)

**Q.** COc1cc2nc(N3CCN(C(=O)C4CCCO4)CC3)nc(N)c2cc1OC.Cl (stereo not shown) [compound 751, Terazosin hydrochloride] was tested. Which “hTLR9 (inhibitory effect, antagonist score)” value did it give?
**A.** 13 (compounds for which there was clear down regulation at 0.5 μg/ml, 5 μg/ml, and 50 μg/ml)

**Q.** How did the “hTLR9 (inhibitory effect, antagonist score)” value turn out when CN(C)C(=O)C(CCN1CCC(O)(c2ccc(Cl)cc2)CC1)(c1ccccc1)c1ccccc1 [compound 144, Loperamidehydrochloride] was run?
**A.** 12 (compounds for which there was clear down regulation at 5 μg/ml and 50 μg/ml)

**Q.** Which “hTLR9 (inhibitory effect, antagonist score)” value does the source give for CCN(CC)CCCNc1nc(-c2ccccc2)nc2ccccc12 [compound 2001] here?
**A.** 13 (compounds for which there was clear down regulation at 0.5 μg/ml, 5 μg/ml, and 50 μg/ml)

**Q.** For COc1cc2nc(N3CCN(C(=O)C4COc5ccccc5O4)CC3)nc(N)c2cc1OC.CS(=O)(=O)O (stereo not shown) [compound 858, Doxazosin mesylate], which “hTLR9 (inhibitory effect, antagonist score)” value is on record?
**A.** 13 (compounds for which there was clear down regulation at 0.5 μg/ml, 5 μg/ml, and 50 μg/ml)

**Q.** For COc1cc2c(cc1O)C[C@H]1c3c(cc(O)c(OC)c3-2)CCN1C [compound 600, Boldine], which “hTLR9 (inhibitory effect, antagonist score)” value is on record?
**A.** 12 (compounds for which there was clear down regulation at 5 μg/ml and 50 μg/ml)

**Q.** With CC(C)(C)c1ccc(C(O)CCCN2CCC(C(O)(c3ccccc3)c3ccccc3)CC2)cc1 (stereo not shown) [compound 138, Terfenadine] as the molecule, how does the “hTLR9 (inhibitory effect, antagonist score)” value read?
**A.** 12 (compounds for which there was clear down regulation at 5 μg/ml and 50 μg/ml)

**Q.** Which “hTLR9 (inhibitory effect, antagonist score)” value does the source give for CCN(CC)CCCC(C)Nc1nc(/C=C/c2ccc(Cl)cc2)nc2cc3ccccc3cc12 (stereo not shown) [compound 2000] here?
**A.** 13 (compounds for which there was clear down regulation at 0.5 μg/ml, 5 μg/ml, and 50 μg/ml)

Same assay, conditions: hTLR9-NFκB-293 cells, with EC50 of CpG ODN 2006; compound at 0.5, 5 and 50 μg/ml

**Q.** CN1CCc2c1nc1ccccc1c2NC(=O)CN1CCN(c2ccccc2)CC1 [compound 1212] was tested. Which “hTLR9 (inhibitory effect)” value did it give?
**A.** 12 (compounds for which there was clear down regulation at 5 μg/ml and 50 μg/ml)

**Q.** With COc1ccc(Cc2nccc3cc(OC)c(OC)cc23)cc1OC.Cl [compound 583, Papaverinehydrochloride] as the molecule, how does the “hTLR9 (inhibitory effect)” value read?
**A.** 12 (compounds for which there was clear down regulation at 5 μg/ml and 50 μg/ml)

**Q.** With O=C1c2ccc(Oc3ccc(S(=O)(=O)c4ccc(Oc5ccc6c(c5)C(=O)N(c5ccccn5)C6=O)cc4)cc3)cc2C(=O)N1c1ccccn1 [compound 1367] as the molecule, how does the “hTLR9 (inhibitory effect)” value read?
**A.** — (compounds for which there was no clear down regulation even at 50 μg/ml)

**Q.** With COc1cc2cc3c4cc(OC)c(OC)cc4cc[n+]3c(C)c2cc1OC [compound 431, Coralyne chloridehydrate] as the molecule, how does the “hTLR9 (inhibitory effect)” value read?
**A.** 13 (compounds for which there was clear down regulation at 0.5 μg/ml, 5 μg/ml, and 50 μg/ml)

**Q.** CN1CCc2c1nc1ccc(Br)cc1c2N [compound 1142, 6-Bromo-1-methyl-2,3-dihydro-1H-pyrrolo[2,3-b]quinolin-4-ylamine] was tested. Which “hTLR9 (inhibitory effect)” value did it give?
**A.** 13 (compounds for which there was clear down regulation at 0.5 μg/ml, 5 μg/ml, and 50 μg/ml)

**Q.** For O=c1c2c(nc(NCCO)n1-c1ccccc1)-c1ccccc1CC21CCCC1 [compound 891], which “hTLR9 (inhibitory effect)” value is on record?
**A.** 11 (compounds for which there was clear down regulation only at 50 μg/ml)

**Q.** Which “hTLR9 (inhibitory effect)” value does the source give for O=c1c2c(nc(NCCO)n1Cc1ccccc1)-c1ccccc1CC21CCCC1 [compound 926] here?
**A.** 11 (compounds for which there was clear down regulation only at 50 μg/ml)

**Q.** COc1ccc2cc3[n+](cc2c1OC)CCc1cc2c(cc1-3)OCO2.[Cl-] [compound 586, Berberine chloride] was tested. Which “hTLR9 (inhibitory effect)” value did it give?
**A.** — (compounds for which there was no clear down regulation even at 50 μg/ml)

**Q.** How did the “hTLR9 (inhibitory effect)” value turn out when O=C1c2ccc(S(=O)(=O)c3ccc4c(c3)C(=O)N(c3ccccn3)C4=O)cc2C(=O)N1c1ccccn1 [compound 1163] was run?
**A.** 11 (compounds for which there was clear down regulation only at 50 μg/ml)

**Q.** With Cc1ccc2nc3c(c(N)c2c1)CCN3C [compound 1091, 1,6-Dimethyl-2,3-dihydro-1H-pyrrolo[2,3-b]quinolin-4-ylamine] as the molecule, how does the “hTLR9 (inhibitory effect)” value read?
**A.** 13 (compounds for which there was clear down regulation at 0.5 μg/ml, 5 μg/ml, and 50 μg/ml)

**Q.** Which “hTLR9 (inhibitory effect)” value does the source give for CN(C)CCN(Cc1ccc(Cl)cc1)c1ccccn1.Cl [compound 807, Chloro-pyraminehydrochloride] here?
**A.** 12 (compounds for which there was clear down regulation at 5 μg/ml and 50 μg/ml)

**Q.** With CN1CCc2c1nc1ccccc1c2NC(=O)CN1CCCCCC1 [compound 1003] as the molecule, how does the “hTLR9 (inhibitory effect)” value read?
**A.** 13 (compounds for which there was clear down regulation at 0.5 μg/ml, 5 μg/ml, and 50 μg/ml)

**Q.** With NNc1nc2c(c(=O)n1C1CCCC1)C1(CCCC1)Cc1ccccc1-2 [compound 1248] as the molecule, how does the “hTLR9 (inhibitory effect)” value read?
**A.** — (compounds for which there was no clear down regulation even at 50 μg/ml)

**Q.** Which “hTLR9 (inhibitory effect)” value does the source give for CN1CCc2c1nc1ccccc1c2N [compound 990, 1-Methyl-2,3-dihydro-1H-pyrrolo[2,3-b]quinolin-4-ylamine] here?
**A.** 13 (compounds for which there was clear down regulation at 0.5 μg/ml, 5 μg/ml, and 50 μg/ml)

**Q.** For CCCCCCCCCCCC(=O)Nc1c2c(nc3ccccc13)N(C)CC2 [compound 1334], which “hTLR9 (inhibitory effect)” value is on record?
**A.** 11 (compounds for which there was clear down regulation only at 50 μg/ml)

**Q.** How did the “hTLR9 (inhibitory effect)” value turn out when O=c1[nH]c(NCCO)nc2c1C1(CCCC1)Cc1ccccc1-2 [compound 1322] was run?
**A.** — (compounds for which there was no clear down regulation even at 50 μg/ml)

**Q.** How did the “hTLR9 (inhibitory effect)” value turn out when Cc1ccc(-n2c(NCCO)nc3c(c2=O)C2(CCCCC2)Cc2ccccc2-3)cc1 [compound 1137] was run?
**A.** 11 (compounds for which there was clear down regulation only at 50 μg/ml)

**Q.** How did the “hTLR9 (inhibitory effect)” value turn out when NNc1nc2c(c(=O)n1-c1ccccc1)C1(CCCC1)Cc1ccccc1-2 [compound 1320] was run?
**A.** 13 (compounds for which there was clear down regulation at 0.5 μg/ml, 5 μg/ml, and 50 μg/ml)

**Q.** For Nc1c2c(nc3ccccc13)N(Cc1ccccc1)CC2 [compound 1217, 1-Benzyl-2,3-dihydro-1H-pyrrolo[2,3-b]quinolin-4-ylamine], which “hTLR9 (inhibitory effect)” value is on record?
**A.** 13 (compounds for which there was clear down regulation at 0.5 μg/ml, 5 μg/ml, and 50 μg/ml)

**Q.** O=C(CN1CCCC1)Nc1c2c(nc3ccccc13)N(c1ccccc1)CC2 [compound 1244] was tested. Which “hTLR9 (inhibitory effect)” value did it give?
**A.** 12 (compounds for which there was clear down regulation at 5 μg/ml and 50 μg/ml)

**Q.** CC[N+](C)(CC)CCC[n+]1c(-c2ccccc2)c2cc(N)ccc2c2ccc(N)cc21.[I-].[I-] [compound 792, Propidium iodide] was tested. Which “hTLR9 (inhibitory effect)” value did it give?
**A.** 12 (compounds for which there was clear down regulation at 5 μg/ml and 50 μg/ml)

**Q.** With CCCCCCN(CCCCCC)CC(=O)Nc1c2c(nc3ccccc13)N(C)CC2 [compound 1224] as the molecule, how does the “hTLR9 (inhibitory effect)” value read?
**A.** 11 (compounds for which there was clear down regulation only at 50 μg/ml)

**Q.** For CN1CCCCc2c1nc1ccccc1c2N [compound 1185, 1-Methyl-2,3,4,5-tetrahydro-1H-azepino[2,3-b]quinolin-6-ylamine], which “hTLR9 (inhibitory effect)” value is on record?
**A.** 13 (compounds for which there was clear down regulation at 0.5 μg/ml, 5 μg/ml, and 50 μg/ml)

**Q.** With Cn1c(NN)nc2c(c1=O)C1(CCCC1)Cc1ccccc1-2 [compound 1213] as the molecule, how does the “hTLR9 (inhibitory effect)” value read?
**A.** — (compounds for which there was no clear down regulation even at 50 μg/ml)

**Q.** For CCOc1ccc(Cc2nccc3cc(OCC)c(OCC)cc23)cc1OCC.Cl [compound 830, Ethaverinehydrochloride], which “hTLR9 (inhibitory effect)” value is on record?
**A.** 11 (compounds for which there was clear down regulation only at 50 μg/ml)
